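Test compounds were applied to cells in 96-well plates for 48 hours at 5 doses. GI50 marks 50% less growth. TGI: total growth inhibition.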
Columns and labels:
Assay in all cases: growth of human tumour cells (NCI), 48 h
HCC-2998 colon = test system: HCC-2998 colon
RPMI-8226 leukemia = test system: RPMI-8226 leukemia
SN12C renal = test system: SN12C renal
TK-10 renal = test system: TK-10 renal
RXF 393 renal = test system: RXF 393 renal
SK-OV-3 ovarian = test system: SK-OV-3 ovarian
KM12 colon = test system: KM12 colon
MALME-3M melanoma = test system: MALME-3M melanoma
SF-268 CNS = test system: SF-268 CNS
A498 renal = test system: A498 renal

| SMILES | TGI (HCC-2998 colon) [µM] | TGI (RPMI-8226 leukemia) [µM] | TGI (SN12C renal) [µM] | TGI (TK-10 renal) [µM] | TGI (RXF 393 renal) [µM] | TGI (SK-OV-3 ovarian) [µM] | TGI (KM12 colon) [µM] | TGI (MALME-3M melanoma) [µM] | TGI (SF-268 CNS) [µM] | TGI (A498 renal) [µM] | GI50 (HCC-2998 colon) [µM] | GI50 (RPMI-8226 leukemia) [µM] | GI50 (SN12C renal) [µM] | GI50 (TK-10 renal) [µM] | GI50 (RXF 393 renal) [µM] | GI50 (SK-OV-3 ovarian) [µM] | GI50 (KM12 colon) [µM] | GI50 (MALME-3M melanoma) [µM] | GI50 (SF-268 CNS) [µM] | GI50 (A498 renal) [µM] |
| --- | --- | --- | --- | --- | --- | --- | --- | --- | --- | --- | --- | --- | --- | --- | --- | --- | --- | --- | --- | --- |
| Cc1nc2c(nc1C)C(=O)c1ccccc1C2=O | 15 | 45.9 | 6.4 | 79.5 | 53.9 | 82.6 | 35.3 | 0.704 | 46.3 | 8.98 |  |  |  |  |  |  |  |  |  |  |
| O=c1cc(-c2cccc(O)c2)[nH]c2cc3c(cc12)OCO3 | > 100 | > 100 | > 78 | > 100 | > 100 | 8.27 | > 100 | > 100 | > 69.6 | > 100 |  |  |  |  |  |  |  |  |  |  |
| COc1cc(C(=O)/C=C/c2sc(Cl)nc2Cl)cc(OC)c1OC | 3.31 | 4.57 | 3.2 | 4.93 | 3.12 | 19.8 | 3.84 | 3.14 | 3.77 | 20.5 | 1.8 | 1.69 | 1.74 | 2.06 | 1.7 | 6.43 | 1.92 | 1.59 | 1.79 | 7.62 |
| CCOC(=O)C(Sc1ccccc1)c1c(OC)cc(=O)oc1/C=[N+](/[O-])c1ccc(N(C)C)cc1 (stereo not given) | 58.7 | 48 | 32 | 89.5 | 32.5 | > 100 | 47.4 | 58.5 | > 100 | > 100 |  |  |  |  |  |  |  |  |  |  |
| CC[C@@]12CCCN3CC[C@]4(c5cccc(OC)c5N(C(C)=O)[C@@H]4CC1)[C@H]32 | 51.1 | > 100 | > 100 | > 100 | > 100 | > 100 | > 100 | > 100 | > 100 | > 100 |  |  |  |  |  |  |  |  |  |  |
| NC(CSC(c1ccccc1)(c1ccccc1)c1ccc2c(c1)OCO2)C(=O)O (stereo not given) | 3.49 | 3.77 | > 100 | > 100 | 54.1 | > 100 | > 100 | 74.4 | > 77.6 | 30.5 | 0.35 | 0.306 | 0.633 | 10.6 | 0.499 | 0.42 | 0.605 | 0.979 | 0.82 | 0.518 |
| CSc1ccccc1C#C/C=C\C#Cc1ccccc1N1CCCC1=O | > 33.8 |  | > 50 | > 50 | 25.8 | > 50 | > 17.6 | > 50 | > 50 | > 50 |  | 3.34 | > 26.2 | > 24.6 | 2.91 |  |  |  | > 10.2 | > 50 |
| Cc1cc2nc(C(Cl)Cl)nc(-c3ccc(Cl)cc3)n2n1 | 2.33 | 6.45 | > 100 | 5.21 | 2.27 | 7 | 1.74 | 2.99 | 4.47 | 2.65 | 0.788 | 1.36 | 2.64 | 1.85 | 0.764 | 2.11 | 0.414 | 1.48 | 1.34 | 1.09 |
| Cc1cc(=O)n2[nH]c(-c3ccc(C(C)(C)C)cc3)cc2n1 | > 100 | 54.8 | > 100 | 61.8 | 28.2 | 86 | 53.9 | 29 | 72.8 | 36.9 | 8.59 | 3.89 | 12.3 | 3.5 | 4.59 | 6.8 | 7.04 | 2.76 | 7.85 | 1.54 |
| COc1ccc(NC(=O)c2cc(OC)cc(OC)c2)cc1 | > 100 | > 100 | > 100 | > 100 | 55.9 | > 84.8 | > 100 | > 100 | > 100 | > 100 |  |  |  |  |  |  |  |  |  |  |
| O=C1C2=C(SCCS2)C(=O)c2ccccc21 | 3.11 | 5.35 | 3.39 | 3.24 | 3.56 | 3.12 | 3.18 | 3.2 | 3.05 | 3.65 |  |  |  |  |  |  |  |  |  |  |
| COc1ccc(-c2cc(-c3ccc(Nc4nc(Nc5ccccc5)nc(Nc5ccc(Cl)cc5)n4)cc3)nc(N)c2C#N)cc1 | 4.41 | 3.79 | > 50 | 1.79 | 1.89 | > 50 | 2.14 | 1.8 | 2.49 | 11.1 | 1.41 | 0.828 | 2.03 | 0.974 | 0.654 | > 28.3 | 0.961 | 0.801 | 1.04 | 2.49 |
| O=C(O)c1cc(C(=O)O)cc(N2C(=O)c3ccccc3C2=O)c1 | > 100 | > 100 | > 100 | > 100 | > 100 | > 100 | > 100 | > 100 | > 100 | > 100 |  |  |  |  |  |  |  |  |  |  |
| COc1cc2c(c(OC)c1O)C(=O)C(OC)C(c1ccc(O)c(O)c1)O2 (stereo not given) | > 100 | 12.9 | > 100 | > 100 | > 100 | > 100 | > 100 | > 100 | > 100 | 0.812 | 0.645 | 0.285 | 0.426 | 40 | 0.305 | 8.23 | 0.515 | 48.3 | 1.5 | 0.228 |
| CC1=C(C#N)C23C(=O)c4ccccc4C(O)=C2C(=O)C=CC3(O)N1Cc1ccccc1 (stereo not given) | > 100 | > 100 | > 100 | > 100 | > 100 | > 100 | > 100 | 47.1 | > 100 | > 100 | > 100 | 34 | 52.5 | 36.9 | 26 | > 100 | 42.4 | 22 | 40.3 | > 100 |
| Cn1ccnc1C(=O)/C=C/c1ccc(CC(=O)Nc2ccc(Br)cc2)cc1 | 5.9 | 8.11 | 11.1 | > 16.7 | 6.03 | > 16.7 | 5.51 | 10.8 | 13 | 12.6 | 2.95 | 2.76 | 3.88 | 6.21 | 3.12 | 8.88 | 2.66 | 4.04 | 3.34 | 4.35 |
| O=C(NCCNc1nccc(-c2c(-c3cccc(O)c3)nc3sccn23)n1)c1ccccc1O | 22.5 | 10.8 | 52 | 30.3 | 16.8 | 39.7 | 15.7 | 18.7 | 46.6 | 28.2 | 5.67 | 2.27 | 3.56 | 6.17 | 2.78 | 4.31 | 4.41 | 0.152 | 5.4 | 7.67 |
| O=C(Nc1ccc(I)cc1)c1cc([N+](=O)[O-])ccc1O | 84 | 8.78 | 75.4 | > 100 | 23.7 | > 100 | 40.9 | 70.3 | > 100 | 5.17 | 3.82 | 2.65 | 4.61 | 9.9 | 2.86 | 6.15 | 5.36 | 19.9 | 7.03 | 1.45 |
| CCOC(=O)c1ncn2c1[nH]c(=S)c1ccccc12 | > 100 | > 100 | > 100 | > 100 | > 100 | > 100 | > 100 | > 100 | > 100 | > 100 |  |  |  |  |  |  |  |  |  |  |
| Cc1ccc(-c2nnc(-c3ccc4ccccc4c3)o2)cc1 | > 100 | > 100 | > 100 | > 60.6 | 55.1 | > 100 | > 100 | > 88.9 | > 100 | > 100 |  |  |  |  |  |  |  |  |  |  |
| Nc1cc2nc3ccccc3sc-2cc1=O | 13.3 | 26.4 | 3.4 | 16.2 | 6.14 | 53.5 | 30.6 | 3.62 | 8.67 | 8.71 | 3.95 | 2.54 | 1.72 | 5.72 | 2.13 | 13.1 | 10.8 | 2.04 | 2.53 | 2.32 |
| O=C(CN1CCN(c2cc3c(cc2F)c(=O)c(C(=O)N/N=C/c2ccccc2O)cn3C2CC2)CC1)N/N=C\c1ccccc1O | > 100 | > 100 | > 100 | > 100 | > 100 | > 100 | > 100 | > 63.4 | > 100 | > 100 | 0.615 | 0.557 | 0.694 | 0.77 | 1.32 | 0.763 | 0.462 | 0.627 | 0.474 | 6.03 |
| CN(C)c1ccc(-c2cc(-c3ccc(Nc4nc(Nc5ccc(Cl)cc5)nc(Nc5ccc(Cl)cc5)n4)cc3)no2)cc1 | 96.7 | 17 | 61 | > 100 | 6.04 | 67 | 25.3 | 36.9 | 21.6 | 22.7 | 7.37 | 2.6 | 9.63 | 16.3 | 2.76 | 20 | 4.11 | 13 | 5.02 | 4.38 |
| CC(C)=CCCc1c(C)ccc2c1C(=O)C(=O)C(C(C)C)=C2 | > 22 | 6.16 | > 22 | 8.81 | 6.79 | > 22 | > 22 | 6.78 | 11.8 | > 22 |  |  |  |  |  |  |  |  |  |  |
| Cc1cc(=O)[nH]c2cc3oc4ccccc4c3cc12 | 16.3 | > 100 | > 100 | > 100 | > 100 | > 100 | > 100 | > 100 | > 93.7 | > 100 |  |  |  |  |  |  |  |  |  |  |
| CSc1ccc(/C=C2\CN(C)C/C(=C\c3ccc(SC)cc3)C2=O)cc1 | > 100 | > 100 | 78.9 | > 100 | > 100 | 88.1 | 44.8 | > 100 | > 100 | > 100 |  |  |  |  |  |  |  |  |  |  |
| COc1ccc(-n2/c(=N/C(=S)N(C)C)ss/c2=N\C(=S)N(C)C)cc1 | > 100 | > 100 | > 100 | > 100 | > 100 | > 100 | > 100 | > 100 | > 100 | > 100 |  |  |  |  |  |  |  |  |  |  |
| CCCCCCCC(=O)SCC/C=C/[C@@H]1CC(=O)NCc2cccc(n2)C2=N[C@@](C)(CS2)C(=O)N[C@@H](C(C)C)C(=O)N1 | 7.48 | > 33.3 | > 33.3 | 24.8 | 19.9 | 11 | > 33.3 | 2.37 | > 33.3 | 6.2 | 1.02 | 0.639 | 3.25 | 1.09 | 2.14 | 1.23 | 1.21 | 0.142 | 2.28 | 0.394 |
| O[C@H]1[C@H]2c3cc4c(cc3CN3CCC(=C[C@@H]1O)[C@H]23)OCO4 | 8.84 | 5.03 | 9.5 | 11.9 | 2.6 | 20.5 | 22.4 | 10.7 | 3.57 | 12.8 |  |  |  |  |  |  |  |  |  |  |

Source: PubChem BioAssay (NCI)
